Article PMC10634346 (Cancer Research Communications, 2023)
Read-outs that look alike come from different tables or passages of the source.

How the values were obtained:
[1] = system: MCL1 mRNA in SU-DHL-10 cells; assay: In vitro washout, MCL1 mRNA qPCR, SU-DHL-10; type: cell-based, human; conditions: 4 h treatment then washout, for 16 to 48 hours after treatment
Procedure: (§1) Evaluation of the pharmacodynamic extent and duration of CDK9 inhibition were performed in vitro using the human DLBCL cell lines SU-DHL-4 and SU-DHL-10, harboring MYC amplification and MYC overexpression with P57T mutation, respectively. Cells were seeded 18 hours prior to treatment for 4 hours with one of three CDK9 inhibitors, enitociclib (0.25 and1 µmol/L), atuveciclib (1 µmol/L) or KB-0742 (1 µmol/L), cells were washed, and incubation continued until 48 hours posttreatment. Samples were collected before treatment (−4), immediately after treatment (0), and at 1, 2, 4, 8, 12, 16, 24, and 48 hours after washout for RNA sequencing (RNA-seq), qPCR, and Western blotting analyses. Total RNA was extracted from blood of patients and cell lines using RNeasy Plus Mini Kit (QIAGEN, #74136) and cDNA prepared with the Maxima First Strand cDNA Synthesis Kit for RT-PCR (Thermo Fisher Scientific, K1642) according to manufacturer's instructions. The integrity of purified total RNA was evaluated using an Agilent 2100 Bioanalyzer system and RNA 6000 Nano Kit (Agilent, #5067-1511). Differential gene expression analysis was performed (Fios Genomics) from RNA-seq data (Discovery Life Sciences). MYC and MCL1 mRNA levels were measured by qPCR in vitro and in vivo, using a Taqman qPCR system (Thermo Fisher Scientific), TaqMan Fast Universal PCR Master Mix (2X) no AmpErase (#4352042) and TaqMan probes for MYC (Hs00153408_m1) and MCL1 (Hs03043899_m1). RNA-seq data were analyzed using DESeq2 ([35]).

[2] = Fraction unbound (fu) used for patient unbound Cmax; type: in vitro ADME; conditions: human, plasma; patients
[3] = system: MYC and MCL1 mRNA in SU-DHL-4 cells; assay: In vitro washout, MYC and MCL1 mRNA qPCR, SU-DHL-4; type: cell-based, human; conditions: 1 µmol/L, 4 h treatment then washout
Procedure: as §1, with “Differential gene expression analysis was performed (Fios Genomics) from RNA-seq data (Discovery Life Sciences).” left out

[4] = system: Mcl-1 protein in SU-DHL-10 tumors; assay: Pharmacodynamics in SU-DHL-10 xenograft tumors, Mcl-1 protein; type: in vivo, C.B-17 SCID mice; conditions: single dose; within 4 to 8 hours postdose
Procedure: (§2) The levels of p-Ser2, p-Ser5 and total RNA polymerase II, Myc, Mcl-1, cleaved PARP (cPARP), and cleaved Caspase 3 were assessed by Western blotting and quantified near-infrared detection and background corrected quantification of fluorescence intensity on an Odyssey Imaging System with IRDye secondary antibodies (LI-COR Biosciences). For quantification, the protein levels were normalized to GAPDH or HSP90, expressed as a ratio to DMSO or vehicle control at matched timepoints. The normalized relative protein levels of p-Ser2 were used for a treatment effect comparison by performing an ANOVA using PROC MIXED in SAS. The ANOVA model included treatment, timepoints and their interactions as fixed effects. The least square means (LSM), differences between the LSMs and associated P values were generated. The following primary antibodies were used: Rpb1 NTD (D8L4Y) rabbit antibody [Cell Signaling Technology (CST), #14958], anti-RNA polymerase II subunit B1 (phospho CTD Ser-2, clone 3E10) rat antibody (Merck, 04-1571-I), recombinant anti-c-MYC rabbit antibody (Y69; Abcam, #ab32072), MCL1 (D5V5L) rabbit antibody (CST, #39224), cleaved-PARP (Asp214) (E2T4K) mouse antibody (CST, #32563), HSP90 (C45G5) rabbit antibody (CST, #4877), and GAPDH mouse antibody (Zytomed Systems, #ZYT-RGM2-6C5). […]

[5] = system: Myc and Mcl-1 protein in SU-DHL-10 cells; assay: In vitro washout, Myc and Mcl-1 protein Western blot, SU-DHL-10; type: cell-based, human; conditions: 1 µmol/L, 4 h treatment then washout
Procedure: (§3) Evaluation of the pharmacodynamic extent and duration of CDK9 inhibition were performed in vitro using the human DLBCL cell lines SU-DHL-4 and SU-DHL-10, harboring MYC amplification and MYC overexpression with P57T mutation, respectively. Cells were seeded 18 hours prior to treatment for 4 hours with one of three CDK9 inhibitors, enitociclib (0.25 and1 µmol/L), atuveciclib (1 µmol/L) or KB-0742 (1 µmol/L), cells were washed, and incubation continued until 48 hours posttreatment. Samples were collected before treatment (−4), immediately after treatment (0), and at 1, 2, 4, 8, 12, 16, 24, and 48 hours after washout for RNA sequencing (RNA-seq), qPCR, and Western blotting analyses.
(§4) The levels of p-Ser2, p-Ser5 and total RNA polymerase II, Myc, Mcl-1, cleaved PARP (cPARP), and cleaved Caspase 3 were assessed by Western blotting and quantified near-infrared detection and background corrected quantification of fluorescence intensity on an Odyssey Imaging System with IRDye secondary antibodies (LI-COR Biosciences). For quantification, the protein levels were normalized to GAPDH or HSP90, expressed as a ratio to DMSO or vehicle control at matched timepoints. The normalized relative protein levels of p-Ser2 were used for a treatment effect comparison by performing an ANOVA using PROC MIXED in SAS. The ANOVA model included treatment, timepoints and their interactions as fixed effects. […]

[6] = system: Myc protein in SU-DHL-10 tumors; assay: Pharmacodynamics in SU-DHL-10 xenograft tumors, Myc protein; type: in vivo, C.B-17 SCID mice; conditions: single dose; within 4 to 8 hours postdose
Procedure: as §2

[7] = system: Myc and Mcl-1 protein in SU-DHL-4 cells; assay: In vitro washout, Myc and Mcl-1 protein Western blot, SU-DHL-4; type: cell-based, human; conditions: 0.25 µmol/L enitociclib, atuveciclib (1 µmol/L)
Procedure: as §3, §4

[8] = Fraction unbound in cell media; type: in vitro ADME
[9] = system: panel of 35 human lymphoma cell lines; assay: CellTiter-Glo cell viability, lymphoma cell line panel (OmniScreen); type: cell-based
Procedure: Human DLBCL cell lines SU-DHL-4 (#ACC 495) and SU-DHL-10 (#ACC 576) were obtained from DSMZ (German Collection of Microorganisms and Cell Cultures). The supplier used PCR-based DNA profiling of polymorphic short tandem repeats for authentication and Mycoplasma testing prior to shipment. Cells were cultured in suspension at 37°C in a humidified atmosphere containing 5% CO2. CDK9 inhibitors KB-0742 (MedChemExpress, #HY-137478A), enitociclib, and atuveciclib ([…] Pharma, Inc.) were used. A subset of 35 lymphoma cell lines is from a 500-cell line panel where the effect of enitociclib on cell viability using CellTiter-Glo luminescent cell viability was determined (OmniScreen, CrownBioscience). Genetic status and gene expression level for MYC and MCL1 was obtained from CrownBioscience.

fraction unbound [2]: 0.0665
fraction unbound [8]: 0.666
SMILES: COc1cc(F)ccc1-c1cc(Nc2cc(CS(C)(=N)=O)ccn2)ncc1F (stereo not shown) [enitociclib]
inhibition of MCL1 mRNA levels [1]: approximately 75%
MYC and MCL1 mRNA levels over the 48-hour time course (in words) [3]: durable depletion
Mcl-1 protein levels in tumors (in words) [4]: robustly decreased
duration of sustained Myc and Mcl-1 protein depletion [5]: 48 h
reduction of Myc protein levels in tumors [6]: 50%
sustained Myc and Mcl-1 protein depletion for 48 hours (in words) [7]: this was achieved
IC50 ([9]; Homo sapiens, lymphoma cell lines, media fu = 66.6%, read-out: mean unbound IC50 for cytotoxicity): ~67 nM
IC50 ([9]; range over panel of 35 human lymphoma cell lines, read-out: IC50 (cell cytotoxicity)): 43 to 152 nM
